Patent publication US9388389B2, “JFH-1 based HCV cell culture systems for NS5A of genotypes 1-7” (Hvidovre Hospital, priority 2009, dated 2016)

Tests used:
Assay in all cases: BMS-790052 treatment of infected cultures
Type in all cases: cell-based, hepatitis C virus
SA13(5a)-T93H = system: SA13(5a)-T93H
Experimental: (§1) 5×10^3 naïve Huh7.5 cells were plated per well in a poly-D-lysine coated 96-well plate (Nunc, Roskilde, D K) one day before infection with different recombinant viruses. Infectious doses were chosen to aim at 400-1000 single infected cells in non-treated wells at the end of the experiment. J6/JFH1 was included with two infectious doses (high and low) to control for impact of dose variability. The infectious dose of other recombinants was in the range between. […] On day three cells were fixed and immunostained for NS3 expression as described above. In parallel, cell viability was monitored with CellTiter™ 96 AQueous One Solution Cell Proliferation Assay (Promega, Madison, Wis. USA). The number of single infected cells was determined by automated counting of individual wells as described above.
(§2) To improve HCV treatment, much attention has been drawn to development of specific small molecule HCV inhibitors, including inhibitors of NS5A. Using the NS5A genotype recombinants, we investigated sensitivity to the NS5A inhibitor most advanced in clinical trials, BMS-790052. Treatment experiments using the specific NS5A inhibitor BMS-790052 (synthesized by Acme Bioscience, Palo Alto, Calif., USA) were conducted similar to what was described for interferon-alpha.
(§3) The best described resistance mutation for this drug class, change of NS5A residue 93, induced >10-fold resistance to BMS-790052 for genotype 1 replicons. We changed this residue to histidine in the NS5A genotype 1-6 recombinants; QC69(7a) naturally had histidine. In BMS-790052 treatment experiments, H77C(1a)-Y93H, JFH1(2a)-Y93H and S52(3a)-Y93H were >1000-fold, J4(1b)-Y93H, J6(2a)-Y93H and ED43(4a)-Y93H˜100-fold, and SA13(5a)-T93H and HK6a(6a)-T93H<5-fold more resistant than the respective original recombinants (Table 21). […] The presence of L31M in the J6(2a) isolate and C92E in the S52(3a) isolate corresponded to the higher resistance of these isolates. Further, the lower sensitivity of J1(1a) compared to other 1a recombinants could be caused by the histidine found at NS5A residue 30, previously associated with resistance in patients.

S52(3a)-Y93H = system: S52(3a)-Y93H
Experimental: as §1, §2, §3

HK6a(6a)-T93H = system: HK6a(6a)-T93H
Experimental: as §1, §2, §3

[1] = system: J6/JFH1 with NS5A mutation C92E
Experimental: as §1, §2, §3

[2] = system: J6/JFH1 with NS5A mutation L31M
Experimental: as §1, §2, §3

[3] = system: J6/JFH1 with JFH1 NS5A domain I exchanged to the J6 sequence
Experimental: as §1, §2, §3

J6(2a)-Y93H = system: J6(2a)-Y93H
Experimental: as §1, §2, §3

ED43(4a)-Y93H = system: ED43(4a)-Y93H
Experimental: as §1, §2, §3

JFH1(2a)-Y93H = system: JFH1(2a)-Y93H
Experimental: as §1, §2, §3

H77C(1a)-Y93H = system: H77C(1a)-Y93H
Experimental: as §1, §2, §3

## COC(=O)N[C@H](C(=O)N1CCC[C@H]1c1nc(-c2ccc(-c3ccc(-c4c[nH]c([C@@H]5CCCN5C(=O)[C@@H](NC(=O)OC)C(C)C)n4)cc3)cc2)c[nH]1)C(C)C [BMS-790052]
SA13(5a)-T93H; Hepatitis C virus, SA13(5a), NS5A mutation T93H, read-out: NS5A inhibitor, EC50 (nM), putative resistance mutant
  EC50: 0.14 nM
SA13(5a)-T93H; SA13(5a) T93H vs original SA13(5a)
  Fold resistance compared to original: 4.2 fold
SA13(5a)-T93H; SA13(5a)-T93H
  fold more resistant than the respective original recombinant: < 5 fold
S52(3a)-Y93H; Hepatitis C virus, S52(3a), NS5A mutation Y93H, read-out: NS5A inhibitor, EC50 (nM), putative resistance mutant
  EC50: 1900 nM
S52(3a)-Y93H; S52(3a) Y93H vs original S52(3a)
  Fold resistance compared to original: 2100 fold
S52(3a)-Y93H; S52(3a)-Y93H
  fold more resistant than the respective original recombinant: > 1000 fold
HK6a(6a)-T93H; HK6a(6a) T93H vs original HK6a(6a)
  Fold resistance compared to original: 4.3 fold
HK6a(6a)-T93H; HK6a(6a)-T93H
  fold more resistant than the respective original recombinant: < 5 fold
HK6a(6a)-T93H; Hepatitis C virus, HK6a(6a), NS5A mutation T93H, read-out: NS5A inhibitor, EC50 (nM), putative resistance mutant
  EC50: 0.14 nM
[1]; Hepatitis C virus, JFH1(2a), NS5A mutation C92E, single experiment of three replicates, read-out: NS5A inhibitor, EC50 (nM), putative resistance mutant
  EC50: 14 nM
[1]; JFH1(2a) C92E vs original JFH1(2a)
  Fold resistance compared to original: 170 fold
[1]; NS5A C92E in the J6/JFH1 background
  resistance: confer resistance
[2]; Hepatitis C virus, JFH1(2a), NS5A mutation L31M, single experiment of three replicates, read-out: NS5A inhibitor, EC50 (nM), putative resistance mutant
  EC50: 17 nM
[2]; JFH1(2a) L31M vs original JFH1(2a)
  Fold resistance compared to original: 190 fold
[2]; NS5A L31M in the J6/JFH1 background
  resistance: confer resistance
[3]; Hepatitis C virus, genotype 2a, J6 (domain I), single experiment of three replicates, read-out: NS5A inhibitor, EC50 (nM), original
  EC50: 19 nM
[3]; exchange of JFH1 NS5A domain I to the corresponding J6 sequence
  resistance: confer resistance
J6(2a)-Y93H; Hepatitis C virus, J6(2a), NS5A mutation Y93H, read-out: NS5A inhibitor, EC50 (nM), putative resistance mutant
  EC50: 2000 nM
J6(2a)-Y93H; J6(2a) Y93H vs original J6(2a)
  Fold resistance compared to original: 140 fold
J6(2a)-Y93H; J6(2a)-Y93H
  fold more resistant than the respective original recombinant: ~100 fold
ED43(4a)-Y93H; ED43(4a) Y93H vs original ED43(4a)
  Fold resistance compared to original: 30 fold
ED43(4a)-Y93H; ED43(4a)-Y93H
  fold more resistant than the respective original recombinant: ~100 fold
ED43(4a)-Y93H; Hepatitis C virus, read-out: NS5A inhibitor, EC50 (nM), putative resistance mutant
  EC50: 0.53 nM
JFH1(2a)-Y93H; Hepatitis C virus, JFH1(2a), NS5A mutation Y93H, read-out: NS5A inhibitor, EC50 (nM), putative resistance mutant
  EC50: 140 nM
JFH1(2a)-Y93H; JFH1(2a) Y93H vs original JFH1(2a)
  Fold resistance compared to original: 1600 fold
JFH1(2a)-Y93H; JFH1(2a)-Y93H
  fold more resistant than the respective original recombinant: > 1000 fold
H77C(1a)-Y93H; H77C(1a) Y93H vs original H77C(1a)
  Fold resistance compared to original: 4300 fold
H77C(1a)-Y93H; H77C(1a)-Y93H
  fold more resistant than the respective original recombinant: > 1000 fold
H77C(1a)-Y93H; Hepatitis C virus, H77C(1a), NS5A mutation Y93H, read-out: NS5A inhibitor, EC50 (nM), putative resistance mutant
  EC50: 110 nM
